Assay type in all cases: in vivo, human
Assay [1] is described as follows: Triangle test of taste modification of theobromine solution. The following applies: for % of panellists who detected a difference: eight panelists; for taste intensity: theobromine reference bitterness 5.0; for taste: compared with theobromine reference. An excerpt:
To investigate the influence of taste modification of (−)-catechin-8-C-β-D-glucopyranoside on theobromine in comparison to the aglycons (+)-catechin and (−)-epicatechin as well as further C-glycosides like apigenin-8-C-β-D-glucopyranoside (vitexin) and apigenin-6-C-β-D-glucopyranoside (isovitexin), theobromine (3 mmol/L) was spiked with different concentrations of (−)-catechin-8-C-β-D-glucopyranoside, (+)-catechin, (−)-epicatechin as well as apigenin-8-C-β-D-glucopyranoside (vitexin) and apigenin-6-C-β-D-glucopyranoside (isovitexin).

A short description of assay [2]: Sensory tasting in alkalized cocoa powder drink. Particulars: for sensory evaluation of bitterness versus control: 50 ppm added (ppm refer to 1 kg of water), 8 persons. How it is done:
The modified product of example 6 was further compared to alkalized cocoa powder (5 g/200 ml)+50 ppm Epicat-6-C-Glc (ppm refer to 1 kg of water).
The modified product of example 6 was further compared to alkalized cocoa powder (5 g/200 ml)+50 ppm Cat-6,8-C-di-Glc (ppm refer to 1 kg of water).
The examples were repeated with the catechin and epicatechin galactosides and the same sensory results were obtained.

Assay [3] is described as follows: Sensory tasting in non-alkalized cocoa powder drink. The following applies: 50 ppm added.
A short description of assay [4]: Sensory tasting against grape seed extract. Particulars: ca. 10 ppm added to 2000 ppm grape seed extract.
The nature of assay [5]: Sensory tasting against pure theobromine. The following applies: ca. 10 ppm added to 600 ppm theobromine. From the text:
Theobromine (600 ppm)+ca. 10 ppm 8-C-glucosylated catechin.

Assay [6] is described as follows: Sensory tasting in astringent dark chocolate. The following applies: 77 mg of 7.8% solution in propylene glycol per 20 g dark chocolate. How it is done:
77 mg of a solution of catechin-8-C-glucoside dissolved in propylene glycol (7.8%) was added to 20 g of molten dark chocolate with strong astringent taste characteristics. After solidification, the chocolate was tasted against a non-treated reference chocolate.
Food ingredients were prepared starting from green tea extract (5 g) or grape seed extract (5 g) by reaction with glucose (4 g) and 3% K2C03 in 100 ml of water. The reaction was done at 80° C. for exactly 20 min. The resulting flavour reaction mix was freeze-dried to obtain a dark red-brown mass which was then added to astringent tasting chocolate at various levels. In a first screening sensory tasting, the optimum level of addition was identified as 300 ppm.
Ingredients prepared from grape seed extract and tea extract in such a manner when added to dark chocolate at 330 ppm decreased the perceived sensory perception of astringency in the dark chocolate.

As for `O=c1cc(-c2ccc(O)cc2)oc2c([C@@H]3O[C@H](CO)[C@@H](O)[C@H](O)[C@H]3O)c(O)cc(O)c12` [vitexin, apigenin-8-C-β-D-glucopyranoside], the entries for the “% of panellists who detected a difference” value in assay [1] (2 μmol/L added), in assay [1] (22.2 μmol/L added) and in assay [1] (222/L μmol/L added) were 0%, 0% and 50%, respectively. Also, the values for the taste intensity in assay [1] (2 μmol/L added), in assay [1] (22.2 μmol/L added) and in assay [1] (222/L μmol/L added) were 5.0, 5.0 and 4.5, respectively.
Turning to `OCC1OC(c2c(O)c3c(c(C4OC(CO)C(O)C(O)C4O)c2O)OC(c2ccc(O)c(O)c2)C(O)C3)C(O)C(O)C1O` (single isomer, unassigned; (-)) [Cat-6,8-C-di-Glc, (−)-cat-echin-6-C-8-C-β-D-diglucopyranoside], the “sensory evaluation of bitterness versus control” value in assay [2] was “lower maximum bitterness intensity than control, a flatter bitterness profile and a “softer” bitterness quality”.
For the molecule `Oc1cc(O)c2c(c1)O[C@H](c1ccc(O)c(O)c1)[C@@H](O)C2` [(+)-catechin], the taste entry in assay [1] (2.2 μmol/L added) is reported as “bitterness”; in assay [1] (22.2 μmol/L added), “more cocoa like”; in assay [1] (222/L μmol/L added), “more cocoa like”. Besides, the “% of panellists who detected a difference” value in assay [1] (2.2 μmol/L added) was determined as 0%; in assay [1] (22.2 μmol/L added), 50%; in assay [1] (222/L μmol/L added), 50%. Further, the taste intensity in assay [1] (2.2 μmol/L added) is given as 5.0; in assay [1] (22.2 μmol/L added) it was 5.0; in assay [1] (222/L μmol/L added) it was “bitterness (4.0)”.
Consider `OC[C@H]1O[C@@H](c2c(O)cc(O)c3c2O[C@@H](c2ccc(O)c(O)c2)[C@H](O)C3)[C@H](O)[C@@H](O)[C@@H]1O` [(−)-catechin-8-C-β-D-glucopyranoside], for which the “taste perception versus reference without addition” value in assay [2] (50 ppm added, 5 persons) was “less bitter and less astringent”. In addition, the “taste perception versus reference without addition” value in assay [3] was “milder and less astringent”. The “astringency versus reference of grape seed extract” value in assay [4] is recorded as “decrease in astringency”. In addition, in assay [5], the “bitterness intensity compared to pure theobromine” value is “did not a perceive a decrease in bitterness intensity” and the “timing of bitterness perception compared to pure theobromine” value is “delay in bitterness perception”. Besides, in assay [6], the “astringency versus non-treated reference chocolate” value was “lower”, the “bitterness versus non-treated reference chocolate” value was “remained unchanged” and the “tasters who noticed a "smoothing out" effect” value is reported as 4 of 5. Further, in assay [1] (2.2 μmol/L added), the taste result was “softer, more”; the “% of panellists who detected a difference” value was 10%; the taste intensity result is “(4.5)”. For the same molecule, in assay [1] (22.2 μmol/L added), the taste result is “softer, more pleasant”; the “% of panellists who detected a difference” value stood at 50%; the taste intensity entry is “less bitter (3.5)”. Moreover, in assay [1] (222/L μmol/L added), the taste entry was “softer, more pleasant”; the “% of panellists who detected a difference” value turned out to be 100%; the taste intensity result is given as “less bitter (1.0)”.
As for `OC[C@H]1O[C@@H](c2c(O)cc3c(c2O)C[C@@H](O)[C@@H](c2ccc(O)c(O)c2)O3)[C@H](O)[C@@H](O)[C@@H]1O` [Epicat-6-C-Glc, (−)-epicatechin-6-C-β-D-glucopyranoside], the “sensory evaluation of bitterness versus control” value in assay [2] is “lower maximum bitterness intensity than control, a flatter bitterness profile and a “softer” bitterness quality”.
`OC[C@H]1O[C@@H](c2c(O)cc3c(c2O)C[C@@H](O)[C@H](c2ccc(O)c(O)c2)O3)[C@H](O)[C@@H](O)[C@@H]1O` [Cat-6-C-Glc, (−)-catechin-6-C-β-D-glucopyranoside]: in assay [2], the “sensory evaluation of bitterness versus control” value is “lower maximum bitterness intensity than in the control sample, a flat bitterness profile and a “softer bitterness quality”.
In the case of `O=c1cc(-c2ccc(O)cc2)oc2cc(O)c([C@@H]3O[C@H](CO)[C@@H](O)[C@H](O)[C@H]3O)c(O)c12` [isovitexin, apigenin-6-C-β-D-glucopyranoside], in assay [1] (2.2 μmol/L added), the taste result is reported as “bitterness”, the “% of panellists who detected a difference” value worked out at 0% and the taste intensity worked out at 5.0. In addition, in assay [1] (22.2 μmol/L added), the taste result is on record as “bitterness”, the “% of panellists who detected a difference” value worked out at 0% and the taste intensity is 5.0. For the same molecule, in assay [1] (222/L μmol/L added), the taste entry is “bitterness”, the “% of panellists who detected a difference” value is reported as 50% and the taste intensity came out at 4.5.
For `Oc1cc(O)c2c(c1)OC(c1ccc(O)c(O)c1)C(O)C2` (single isomer, unassigned; (-)) [(−)-epicatechin], in assay [1] (2.2 μmol/L added), the taste entry is “bitterness”, the “% of panellists who detected a difference” value amounted to 0% and the taste intensity is recorded as 5.0. In assay [1] (22.2 μmol/L added), the taste entry was “more cocoa like”, the “% of panellists who detected a difference” value was found to be 50% and the taste intensity is given as 5.0. In addition, in assay [1] (222/L μmol/L added), the taste result is listed as “more cocoa like”, the “% of panellists who detected a difference” value turned out to be 50% and the taste intensity result is recorded as “bitterness (4.0)”.

The values are drawn from US20070269570A1, “FLAVONOID SUGAR ADDITION PRODUCTS, METHOD FOR MANUFACTURE AND USE THEREOF” (priority 2006, published 2007).
